The values below come from US20250179073A1, “TRICYCLIC HETEROCYCLE COMPOUNDS AS IAP ANTAGONISTS” (Ascentage Pharma (Suzhou) Co., Ltd., priority 2022, published 2025).

The subject of test [1] is EVSA-T cells. The test can be described thus: Cell proliferation assay (CellTiter-Glo), EVSA-T. Type of test: cell-based. The conditions noted are these: Homo sapiens, EVSA-T, 72 h, 72 h treatment, Celltiter-Glo luminescence. The method in brief: (§1)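 Compounds tested over ten concentrations ([…]) for 72 h on EVSA-T cells in MEM/10% FBS and MDA-MB-231 cells in RPMI-1640/10% FBS, seeded at 10000/well. Luminescent CellTiter-Glo readout; IC50 fitted after normalisation to controls.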
On the technique in general: Cellular ATP, detected with luciferase, serves as a proxy for viable cell number.

Test [2] relates to MDA-MB-231 cells. The test is described as follows: Cell proliferation assay (CellTiter-Glo), MDA-MB-231. Type of test: cell-based. The conditions noted are these: Homo sapiens, MDA-MB-231, 72 h, 72 h treatment, Celltiter-Glo luminescence. The method in brief:
as §1

As a reminder, the IC50 is the midpoint of a concentration-inhibition curve. As to `C[C@@H]1CN(CC(=O)N2CC(C)(C)c3c2cc(Cc2ccc(F)cc2)c2ncc(Br)n32)[C@@H](CN2CCOC[C@H]2C)CN1` [Compound 119, 1-(1-bromo-4-(4-fluorobenzyl)-8,8-dimethyl-7,8-dihydro-6H-imidazo[1,2-a]pyrrolo[2,3-e]pyridin-6-yl)-2-((2R,5R)-5-methyl-2-(((R)-3-methylmorpholino)methyl)piperazin-1-yl)ethan-1-one], the IC50 in test [1] was 6 nM; in test [2], 100 nM.

For `C[C@@H]1CN(CC(=O)N2CC(C)(C)c3c2cc(Cc2ccc(F)cc2)c2nc(CF)cn32)[C@@H](CN2CCOC[C@H]2C)CN1` [Compound 121, 1-(4-(4-fluorobenzyl)-2-(fluoromethyl)-8,8-dimethyl-7,8-dihydro-6H-imidazo[1,2-a]pyrrolo[2,3-e]pyridin-6-yl)-2-((2R,5R)-5-methyl-2-(((R)-3-methylmorpholino)methyl)piperazin-1-yl)ethan-1-one], the IC50 in test [1] was found to be 5 nM; in test [2], 65 nM.

On to `C[C@@H]1CN(CC(=O)N2CC(C)(C)c3c2cc(Cc2ccc(F)cc2)c2nc(C(F)F)cn32)[C@@H](CN2CCOC[C@H]2C)CN1` [Compound 122, 1-(2-(difluoromethyl)-4-(4-fluorobenzyl)-8,8-dimethyl-7,8-dihydro-6H-imidazo[1,2-a]pyrrolo[2,3-e]pyridin-6-yl)-2-((2R,5R)-5-methyl-2-(((R)-3-methylmorpholino)methyl)piperazin-1-yl)ethan-1-one], for which the IC50 in test [1] was determined as 6 nM; in test [2], 65 nM.

As for `C[C@@H]1CN(CC(=O)N2CC(C)(C)c3c2cc(Cc2ccc(F)cc2Cl)c2ncnn32)[C@@H](CN2CCOC[C@H]2C)CN1` [Compound 123, 1-(4-(2-chloro-4-fluorobenzyl)-8,8-dimethyl-7,8-dihydro-6H-pyrrolo[2,3-e][1,2,4]triazolo[1,5-a]pyridin-6-yl)-2-((2R,5R)-5-methyl-2-(((R)-3-methylmorpholino)methyl)piperazin-1-yl)ethan-1-one], the IC50 in test [1] stood at 43 nM; in test [2] it was 120 nM.

Take `COc1nc2c(Cc3ccc(F)cc3)cc3c(n2n1)C(C)(C)CN3C(=O)CN1C[C@@H](C)NC[C@@H]1CN1CCOC[C@H]1C` [Compound 126, 1-(4-(4-fluorobenzyl)-2-methoxy-8,8-dimethyl-7,8-dihydro-6H-pyrrolo[2,3-e][1,2,4]triazolo[1,5-a]pyridin-6-yl)-2-((2R,5R)-5-methyl-2-(((R)-3-methylmorpholino)methyl)piperazin-1-yl)ethan-1-one]: the IC50 in test [1] was 3 nM; in test [2], 20 nM.

On to `C[C@@H]1CN(CC(=O)N2CC(C)(C)c3c2cc(Cc2ccc(F)cc2)c2cnnn32)[C@@H](CN2CCOC[C@H]2C)CN1` [Compound 128, 1-(4-(4-fluorobenzyl)-8,8-dimethyl-7,8-dihydro-6H-pyrrolo[2,3-e][1,2,3]triazolo[1,5-a]pyridin-6-yl)-2-((2R,5R)-5-methyl-2-(((R)-3-methylmorpholino)methyl)piperazin-1-yl)ethan-1-one], for which the figures for the IC50 in test [1] and in test [2] were 2 nM and 12 nM, respectively.

`C[C@@H]1CN(CC(=O)N2CC(C)(C)c3c2cc(Cc2ccc(F)cc2N)c2ncnn32)[C@@H](CN2CCOC[C@H]2C)CN1` [Compound 129, 1-(4-(2-amino-4-fluorobenzyl)-8,8-dimethyl-7,8-dihydro-6H-pyrrolo[2,3-e][1,2,4]triazolo[1,5-a]pyridin-6-yl)-2-((2R,5R)-5-methyl-2-(((R)-3-methylmorpholino)methyl)piperazin-1-yl)ethan-1-one]: the figures for the IC50 in test [1] and in test [2] were 11 nM and 46 nM, respectively.

In the case of `Cc1nc(C#N)c2c(Cc3ccc(F)cc3)cc3c(n12)C(C)(C)CN3C(=O)CN1C[C@@H](C)NC[C@@H]1CN1CCOC[C@H]1C` [Compound 130, 4-(4-fluorobenzyl)-1,8,8-trimethyl-6-(2-((2R,5R)-5-methyl-2-(((R)-3-methylmorpholino)methyl)piperazin-1-yl)acetyl)-7,8-dihydro-6H-imidazo[1,5-a]pyrrolo[2,3-e]pyridine-3-carbonitrile], the IC50 in test [1] stood at 37 nM; in test [2] it was 230 nM.
